Blank lines part the entries; values can stand above or below the molecule they belong to. Starred links: 1 amine or outer side, 2 acyl side, 3 side chain; linkers in the order of their positions; H or OH if unused. Positions of bridges follow the written chain, without caps; N, C: chain ends. Residues, ends and D or L forms follow the SMILES beside them. No end group written: not given here. *: point of attachment. TBMB = c1c(C[*:1])cc(C[*:3])cc1C[*:2]; Cam = NC(=O)C*
Tests used:
Pronase = experiment: Peptide conjugate digestion with Pronase; type: in vitro ADME; also: key: +++: substantially intact; −: completely cleaved
Method: (§1) For methods, see Example 3 following. The proteolysis was undertaken at 37° C. Cathepsin G and kalikrein reactions were carried out in 10 mM Tris pH 7.4, 150 mM NaCl, 10 mM MgCl2, 1 mM CaCl2, 0.1% BSA, 0.01% Triton X100, 5% DMSO. Chymotrypsin reactions were carried out in 100 mM Tris pH 7.4, 10 mM CaCl2. Pronase and proteinase K reactions were carried out in 100 mM Tris pH 7.4, 0.5% SDS. Subtilisin reactions were carried out in 50 mM KH2PO4 pH 7.5. Trypsin reactions were carried out in 67 mM sodium phosphate pH 7.6. Reaction conditions with serum involve dissolving the peptide in 1×PBS (total volume 24 μl) and 6 μl of human serum added to the reaction.
(§2) Peptides (linear and conjugates) were dissolved in water at a concentration of 1 mg/ml, giving an effective concentration of ˜0.5 mM stock solutions and the concentration determined using amino acid analysis. 2 μl of peptide conjugates ([…]) (˜30 μM in reactions depending on actual molecular weight) were dissolved in reaction buffer (see below) in a total reaction volume of 30 μl, followed by the protease (typically in the range 1, 0.1 and 0.01 μg per reaction), and samples were incubated at 37° C. for 1 hr. 10 μl aliquots were quenched into 10 μl of 1% TFA. Samples were analysed by MALDI-TOF mass spectrometry to identify the fragment peaks and thus determine the site of cleavage. Where there was ambiguity as to the cleavage site samples were analysed by either by MALDI-TOF-TOF (Bruker Ultraflex 3) or by Linear Ion Trap (Thermoscientific Orbitrap XL) to determine accurate masses.

Trypsin = experiment: Peptide conjugate digestion with Trypsin; type: in vitro ADME; as to Peptide digestion, intactness scale: key: +++: substantially intact; −: completely cleaved
Method: as §1, §2

Cathepsin G = target: T1, Cathepsin G (Homo sapiens, UniProt P08311); experiment: Peptide conjugate digestion with Cathepsin G; type: in vitro ADME; also: key: +++: substantially intact; −: completely cleaved
T1 sequence (P08311 21-244): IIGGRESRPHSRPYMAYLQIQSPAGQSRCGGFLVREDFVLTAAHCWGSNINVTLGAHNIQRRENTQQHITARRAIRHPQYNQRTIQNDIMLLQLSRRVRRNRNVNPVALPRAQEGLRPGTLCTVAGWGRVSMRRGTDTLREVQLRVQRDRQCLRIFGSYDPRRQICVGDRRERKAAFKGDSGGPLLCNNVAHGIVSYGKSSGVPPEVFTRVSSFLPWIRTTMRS
Method: as §1, §2

Chymotrypsin = experiment: Peptide conjugate digestion with Chymotrypsin; type: in vitro ADME; as to Peptide digestion, intactness scale: key: +++: substantially intact; −: completely cleaved
Method: as §1, §2

[1] = Resistance to proteases in serum; type: in vitro ADME, human; settings: 37° C.
Method: as §1

[2] = target: T2, biotinylated MDM2 peptide (res 2-125) (Homo sapiens, UniProt Q00987); experiment: Phage ELISA, binding to MDM2; settings: 5 mM DTT 20 min, then chymotrypsin 50 μg/ml 2 min
T2 construct: biotinylated MDM2 peptide (res 2-125)
T2 sequence (Q00987 2-125, species assumed): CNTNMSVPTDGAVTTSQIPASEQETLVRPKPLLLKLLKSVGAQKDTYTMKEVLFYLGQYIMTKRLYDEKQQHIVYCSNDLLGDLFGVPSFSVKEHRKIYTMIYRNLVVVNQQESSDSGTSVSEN
Method: 0.6 μg/mL of biotinylated MDM2 peptide (res 2-125) was immobilized on a streptavidin-coated plate (Roche). Plate was blocked with PBSM (but 4% in milk powder) and linear or TBMB-conjugated phage (10^7 TU/well in PBSM in the presence or absence of 5 mM DTT) was incubated on the plate for 50 min at room temperature. Similarly, phage was first reduced in 5 mM DTT for 20 min, treated with chymotrypsin (50 μg/ml in PBS) for 2 min, mixed with PBSM (final concentration) and incubated on the plate for 50 min at room temperature. Phage was detected using an anti-M13-HRP monoclonal antibody (1:5000, Amersham).

MDM2 (res 2-125) = MDM2 (res 2-125) (Homo sapiens, UniProt Q00987); experiment: Fluorescence anisotropy titration, affinity for MDM2; type: binding
Chain of MDM2 (res 2-125) (Q00987 2-125, species assumed): as above
Method: Titration experiments were run on a Horiba Jobin Yvon fluorimeter equipped with the Hamilton Microlab titrator controlled by laboratory software. […] The slit widths for excitation and emission were 5 nm and 15 nm and the integration time 10 s was used for each measurement. The intrinsic fluorescence of tryptophan in peptides 10, 48 was used to measure their binding affinity for MDM2 (res 2-125). The experiments were performed at 23° C. in PBS, 5 mM DTT. Usually 250 μl of MDM2 (150 μM) was titrated into 1.2 ml of peptide (1 μM). Titration data were analyzed with a standard 1:1 binding model by using the quadratic solution to the equilibrium Kd=[A][B]/[AB]. […] The fitting equation contained an extra term to account for linear drift.

Subtilisin = experiment: Peptide conjugate digestion with Subtilisin; type: in vitro ADME; also: key: +++: substantially intact; −: completely cleaved
Method: as §1
(§3) Peptides (linear and conjugates) were dissolved in water at a concentration of 1 mg/ml, giving an effective concentration of ˜0.5 mM stock solutions and the concentration determined using amino acid analysis. […] Samples were analysed by MALDI-TOF mass spectrometry to identify the fragment peaks and thus determine the site of cleavage. Where there was ambiguity as to the cleavage site samples were analysed by either by MALDI-TOF-TOF (Bruker Ultraflex 3) or by Linear Ion Trap (Thermoscientific Orbitrap XL) to determine accurate masses.

[3] = Peptide conjugate digestion with Chymotrypsin; type: in vitro ADME; settings: isolated enzyme chymotrypsin, pH 7.4; chymotrypsin 0.1 μg, after 1 hr; read-out: fraction cleaved by chymotrypsin; as to Peptide digestion, intactness scale: key: +++: substantially intact; −: completely cleaved
Method: as §1, §2

Kalikrein = Kalikrein (Homo sapiens, UniProt P03952); experiment: Peptide conjugate digestion with Kalikrein; type: in vitro ADME; parameters: Peptide digestion, intactness scale: key: +++: substantially intact; −: completely cleaved
Chain of Kalikrein (P03952 20-638): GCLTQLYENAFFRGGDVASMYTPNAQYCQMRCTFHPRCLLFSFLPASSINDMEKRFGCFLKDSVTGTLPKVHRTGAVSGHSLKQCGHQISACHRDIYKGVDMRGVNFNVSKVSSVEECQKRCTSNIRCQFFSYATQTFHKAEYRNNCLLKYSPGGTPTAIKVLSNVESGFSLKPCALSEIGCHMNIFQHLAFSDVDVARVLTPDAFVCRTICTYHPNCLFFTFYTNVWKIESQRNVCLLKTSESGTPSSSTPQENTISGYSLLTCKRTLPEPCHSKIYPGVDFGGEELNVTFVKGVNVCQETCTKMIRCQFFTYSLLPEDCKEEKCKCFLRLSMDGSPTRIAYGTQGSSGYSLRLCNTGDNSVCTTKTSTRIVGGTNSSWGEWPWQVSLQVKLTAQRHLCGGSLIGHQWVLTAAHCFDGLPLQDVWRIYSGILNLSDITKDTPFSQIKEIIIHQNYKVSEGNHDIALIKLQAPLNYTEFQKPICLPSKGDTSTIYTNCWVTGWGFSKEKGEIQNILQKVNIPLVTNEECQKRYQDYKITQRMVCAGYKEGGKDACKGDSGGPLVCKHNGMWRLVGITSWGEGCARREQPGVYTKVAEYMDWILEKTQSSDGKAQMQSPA
Method: as §1, §2

Proteinase K = Proteinase K (Parengyodontium album, UniProt P06873); experiment: Peptide conjugate digestion with Proteinase K; type: in vitro ADME; parameters: key: +++: substantially intact; −: completely cleaved
Chain of Proteinase K (P06873 106-384): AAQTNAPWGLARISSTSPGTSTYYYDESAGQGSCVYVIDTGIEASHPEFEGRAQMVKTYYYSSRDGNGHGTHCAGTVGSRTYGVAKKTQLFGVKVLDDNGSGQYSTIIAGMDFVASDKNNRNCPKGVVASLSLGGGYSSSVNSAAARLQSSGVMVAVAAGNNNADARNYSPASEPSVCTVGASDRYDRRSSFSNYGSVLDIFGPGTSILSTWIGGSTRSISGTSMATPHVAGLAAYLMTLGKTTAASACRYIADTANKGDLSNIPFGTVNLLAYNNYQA
Method: as §1, §2

various proteases = type: in vitro ADME
Method: as §1, §3

[4] = Kd, peptide+MDM2, λex=295 nm, 23° C., PBS, 5 mM DTT
[5] = affinity for MDM2, synthetic peptide, sub-micromolar, stated range
[6] = mass spectrometric analysis of cleaved species

Peptide digestion, intactness scale (Pronase; Pronase 0.01, 37° C.): +++
Peptide digestion, intactness scale (Pronase; Pronase 10, 37° C.): −
Peptide digestion, intactness scale (Trypsin; Trypsin 1, 37° C.): −
Peptide digestion, intactness scale (Trypsin; Trypsin 10, 37° C.): −
Peptide digestion, intactness scale (Cathepsin G; Cathepsin G 0.1, 37° C.): −
Peptide digestion, intactness scale (Cathepsin G; Cathepsin G 1 (μg per reaction), 37° C.): −
Peptide digestion, intactness scale (Chymotrypsin; Chymotrypsin 0.01, 37° C.): +++
Peptide digestion, intactness scale (Chymotrypsin; Chymotrypsin 1, 37° C.): −
Peptide digestion, intactness scale (Chymotrypsin; Chymotrypsin 10, 37° C.): −
time within which digested by the proteases in serum [1]: ≤ 2 h
Molecule: CC(C)C[C@H](NC(=O)[C@H](C)NC(=O)[C@H](CCC(=O)O)NC(=O)[C@H](CC(=O)O)NC(=O)[C@H](C)NC(=O)[C@@H]1CCCN1C(=O)[C@H](CSCC(N)=O)NC(=O)[C@H](CC(N)=O)NC(=O)[C@H](CCCNC(=N)N)NC(=O)[C@H](Cc1ccccc1)NC(=O)[C@H](CCCNC(=N)N)NC(=O)[C@H](CC(=O)O)NC(=O)[C@H](CO)NC(=O)[C@H](CSCC(N)=O)NC(=O)[C@H](C)N)C(=O)N[C@@H](CSCC(N)=O)C(=O)NCC(=O)O [PK15 linear, AC*SDRFRNC*PADEALC*G] (H-AC(Cam)SDRFRNC(Cam)PADEALC(Cam)G-OH)

Molecule: CC(C)C[C@@H]1NC(=O)[C@H](CCC(=O)O)NC(=O)[C@@H](NC(=O)[C@@H](N)CO)CSCc2cc3cc(c2)CSC[C@H](NC(=O)[C@H](CCCCN)NC(=O)[C@@H]2CCCN2C(=O)[C@H](CC(N)=O)NC(=O)[C@H](Cc2c[nH]c4ccccc24)NC1=O)C(=O)N[C@@H](CCCNC(=N)N)C(=O)N[C@@H](CC(C)C)C(=O)N[C@@H](CO)C(=O)N1CCC[C@H]1C(=O)N[C@@H](Cc1ccccc1)C(=O)N[C@@H](CCC(=O)O)C(=O)N[C@H](C(=O)N[C@@H](CCCCN)C(=O)NCC(=O)O)CSC3 [PEP10] (HELM PEPTIDE1{S.C.E.L.W.N.P.K.C.R.L.S.P.F.E.C.K.G}|CHEM1{[c1c(C[*:1])cc(C[*:3])cc1C[*:2]]}$PEPTIDE1,CHEM1,2:R3-1:R1|PEPTIDE1,CHEM1,9:R3-1:R2|PEPTIDE1,CHEM1,16:R3-1:R3$$$V2.0)
binding to MDM2 after proteolysis [2]: resistant to proteolysis
Kd (MDM2 (res 2-125); [4]): 267 nM
Kd (MDM2 (res 2-125); [5]): 250 to 750 nM

Molecule: CC(C)C[C@@H]1NC(=O)[C@H](C)NC(=O)[C@H](CCC(=O)O)NC(=O)[C@H](CC(=O)O)NC(=O)[C@H](C)NC(=O)[C@@H]2CCCN2C(=O)[C@@H]2CSCc3cc(cc(c3)CSC[C@@H](C(=O)NCC(=O)O)NC1=O)CSC[C@H](NC(=O)[C@H](C)N)C(=O)N[C@@H](CO)C(=O)N[C@@H](CC(=O)O)C(=O)N[C@@H](CCCNC(=N)N)C(=O)N[C@@H](Cc1ccccc1)C(=O)N[C@@H](CCCNC(=N)N)C(=O)N[C@@H](CC(N)=O)C(=O)N2 [PK15-TBMB] (HELM PEPTIDE1{A.C.S.D.R.F.R.N.C.P.A.D.E.A.L.C.G}|CHEM1{[c1c(C[*:1])cc(C[*:3])cc1C[*:2]]}$PEPTIDE1,CHEM1,2:R3-1:R1|PEPTIDE1,CHEM1,9:R3-1:R2|PEPTIDE1,CHEM1,16:R3-1:R3$$$V2.0)
Peptide digestion, intactness scale (Subtilisin; Subtilisin 0.009, 37° C.): +++
Peptide digestion, intactness scale (Subtilisin; Subtilisin 9, 37° C.): −
Peptide digestion, intactness scale (Pronase; Pronase 0.01, 37° C.): +++
Peptide digestion, intactness scale (Pronase; Pronase 0.1, 37° C.): +++
Peptide digestion, intactness scale (Trypsin; Trypsin 0.01, 37° C.): +++
Peptide digestion, intactness scale (Trypsin; Trypsin 10, 37° C.): −
trypsin cleavage sites (Trypsin; [6]): same cleavage sites
time to complete cleavage at R7 (Trypsin; trypsin 0.1 μg): ≤ 5 min
Peptide digestion, intactness scale (Cathepsin G; Cathepsin G 0.01, 37° C.): +++
Peptide digestion, intactness scale (Cathepsin G; Cathepsin G 0.1, 37° C.): +++
metabolised at 1 h, 20 μM [3]: ~50%
cleavage by chymotrypsin (Chymotrypsin; 1 μg chymotrypsin, after 1 hour): completely cleaved
Peptide digestion, intactness scale (Chymotrypsin; Chymotrypsin 0.01, 37° C.): +++
Peptide digestion, intactness scale (Chymotrypsin; Chymotrypsin 0.1, 37° C.): +++
Peptide digestion, intactness scale (Chymotrypsin; Chymotrypsin 1, 37° C.): +++
chymotrypsin cleavage site (Chymotrypsin; [6]): same cleavage sites
Peptide digestion, intactness scale (Kalikrein; Kalikrein 0.01, 37° C.): +++
Peptide digestion, intactness scale (Kalikrein; Kalikrein 0.1, 37° C.): +++
Peptide digestion, intactness scale (Kalikrein; Kalikrein 1, 37° C.): +++
factor of resistance, TBMB conjugate versus linear (Kalikrein; attack by kallikrein, by comparing different concentrations of enzyme): about 100 fold
Peptide digestion, intactness scale (Proteinase K; Proteinase K 0.01, 37° C.): +++
Peptide digestion, intactness scale (Proteinase K; Proteinase K 0.1, 37° C.): +++
Peptide digestion, intactness scale (Proteinase K; Proteinase K 1, 37° C.): +++
time for which proteolysis in serum is resisted ([1]; later times not yet tested): at least 48 hours

Molecule: CC(C)[C@@H]1NC(=O)[C@@H](NC(=O)[C@@H](N)CO)CSCc2cc3cc(c2)CSC[C@H](NC(=O)[C@H]([C@@H](C)O)NC(=O)[C@H](Cc2c[nH]c4ccccc24)NC(=O)CNC(=O)[C@H](Cc2ccccc2)NC(=O)[C@H](CCCNC(=N)N)NC1=O)C(=O)N[C@@H](CC(=O)O)C(=O)N[C@@H](CC(N)=O)C(=O)N[C@@H](CO)C(=O)N[C@@H](Cc1c[nH]c2ccccc12)C(=O)N[C@@H](Cc1c[nH]cn1)C(=O)NCC(=O)N[C@H](C(=O)N[C@@H](CCCCN)C(=O)NCC(=O)O)CSC3 [PEP48] (HELM PEPTIDE1{S.C.V.R.F.G.W.T.C.D.N.S.W.H.G.C.K.G}|CHEM1{[c1c(C[*:1])cc(C[*:3])cc1C[*:2]]}$PEPTIDE1,CHEM1,2:R3-1:R1|PEPTIDE1,CHEM1,9:R3-1:R2|PEPTIDE1,CHEM1,16:R3-1:R3$$$V2.0)
binding to MDM2 after proteolysis [2]: resistant to proteolysis
Kd (MDM2 (res 2-125); Kd, peptide+MDM2, λex=280 nm): 760 nM
Kd (MDM2 (res 2-125); [4]): 567 nM
Kd (MDM2 (res 2-125); [5]): 250 to 750 nM

Molecule: CG4L1-PK15L1 TBMB: bicyclic CG4L1-PK15L1 (WO 2009/098450) (ALCIFDLGFCSDRFRNCPADE; linker 3-10-17 via TBMB)
factor of resistance, TBMB conjugate versus linear (various proteases): 1-100 fold

Reference: patent US9644201B2, “Structured peptide processing” (BICYCLE THERAPEUTICS LIMITED, priority 2009, dated 2017)
